Results taken from US20260256792A1, “TREATMENT OF CHRONIC SPONTANEOUS URTICARIA BY ADMINISTERING (R)-2-[3-[4-AMINO-3-(2-FLUORO-4-PHENOXY-PHENYL)PYRAZOLO[3,4-D]PYRIMIDIN-1-YL]PIPERIDINE-1-CARBONYL]-4-METHYL-4-[4-(OXETAN-3-YL)PIPERAZIN-1-YL]PENT-2-ENENITRILE” (priority 2023, published 2026).

Tested on: moderate-to-severe chronic spontaneous urticaria (CSU)
Test: Phase 2 CSU study: urticaria activity score over 7 days (UAS7)
Assay type: in vivo, human
Conditions: Omalizumab-naïve, 400 mg QPM
From the text: The study comprises a 12 week, randomized, double-blind, placebo-controlled, multi-center, dose-ranging efficacy and safety phase, followed by a 40 week open label extension (OLE) phase (see FIG. 1). The study consists of three phases and an optional OLE phase. […] Clinically, CSU is characterized by the spontaneous and recurrent appearance of pruritic hives. The proposed primary endpoints were the UAS7 at Week 12 in EU and EU reference countries and the ISS7 in the US. Regardless of where a participant was from, all assessments were the same. The UAS7 score is a composite score containing both the HSS7 and the ISS7. This allowed a global assessment of the two key components of urticaria: hives and itch. […] The UAS is a validated PRO measure. […] The daily UAS scores range from 0 to 6 point/day. […] Patients were to complete the UAS using the e-diary. […] The following secondary endpoints were to be analyzed using the same approach as for the primary endpoint: • Change from baseline in UAS7 at Week 4 • Change from baseline in UAS7 at Week 12 (for US and US reference countries) • Change from baseline in ISS7 at Week 12 (except US and US reference countries) • Change from baseline in HSS7 at Week 12 The following responder secondary endpoints were to be analyzed using the Cochran-Mantel-Haenszel test adjusted by region: • Proportion of participants with UAS7<6 at Week 12 • Proportion of participants with UAS7=0 at Week 12 Participants who received selected prohibited medications and/or rescue medications were to be considered as non-responders for time points after the medication usage. For other participants, all available data including those collected during the off-treatment period were to be used to determine the responder/non-responder status. Missing data were to be considered as non-responders.

CC(C)(C=C(C#N)C(=O)N1CCC[C@@H](n2nc(-c3ccc(Oc4ccccc4)cc3F)c3c(N)ncnc32)C1)N1CCN(C2COC2)CC1 [rilzabrutinib, (R)-2-[3-[4-amino-3-(2-fluoro-4-phenoxy-phenyl)pyrazolo[3,4-d]pyrimidin-1-yl]piperidine-1-carbonyl]-4-methyl-4-[4-(oxetan-3-yl)piperazin-1-yl]pent-2-enenitrile]
Non-responder n (%), UAS7 ≤6 (Week 1): 35 (94.6) n (%)
OR for rilzabrutinib vs. placebo, UAS7 = 0 (Week 1): 0.000 (NE,
RRD (%) for rilzabrutinib vs. placebo, UAS7 = 0 (Week 1): −2.9 %
RRD (%) for rilzabrutinib vs. placebo, UAS7 ≤6 (Week 1): −0.0%
Responder n (%), UAS7 = 0 (Week 1): 0 n (%)
Responder n (%), UAS7 ≤6 (Week 1): 2 (5.4) n (%)
Imputed non-responder n (%), UAS7 = 0 (Week 2): 0 n (%)
Imputed non-responder n (%), UAS7 ≤6 (Week 2): 0 n (%)
Non-responder n (%), UAS7 = 0 (Week 2): 37 (100) n (%)
Non-responder n (%), UAS7 ≤6 (Week 2): 36 (97.3) n (%)
OR for rilzabrutinib vs. placebo, UAS7 = 0 (Week 2): 0.000 (NE,
OR for rilzabrutinib vs. placebo, UAS7 ≤6 (Week 2): 0.489
RRD (%) for rilzabrutinib vs. placebo, UAS7 = 0 (Week 2): −2.9 %
RRD (%) for rilzabrutinib vs. placebo, UAS7 ≤6 (Week 2): −2.7%
Responder n (%), UAS7 = 0 (Week 2): 0 n (%)
Responder n (%), UAS7 ≤6 (Week 2): 1 (2.7) n (%)
Imputed non-responder n (%), UAS7 = 0 (Week 3): 0 n (%)
Imputed non-responder n (%), UAS7 ≤6 (Week 3): 0 n (%)
Non-responder n (%), UAS7 = 0 (Week 3): 37 (100) n (%)
Non-responder n (%), UAS7 ≤6 (Week 3): 35 (94.6) n (%)
OR for rilzabrutinib vs. placebo, UAS7 = 0 (Week 3): 0.000 (NE,
OR for rilzabrutinib vs. placebo, UAS7 ≤6 (Week 3): 0.666
RRD (%) for rilzabrutinib vs. placebo, UAS7 = 0 (Week 3): −2.9 %
RRD (%) for rilzabrutinib vs. placebo, UAS7 ≤6 (Week 3): −2.5%
Responder n (%), UAS7 = 0 (Week 3): 0 n (%)
Responder n (%), UAS7 ≤6 (Week 3): 2 (5.4) n (%)
Imputed non-responder n (%), UAS7 = 0 (Week 4): 1 (2.7) n (%)
Imputed non-responder n (%), UAS7 ≤6 (Week 4): 1 (2.7) n (%)
Non-responder n (%), UAS7 = 0 (Week 4): 37 (100) n (%)
Non-responder n (%), UAS7 ≤6 (Week 4): 35 (94.6) n (%)
OR for rilzabrutinib vs. placebo, UAS7 = 0 (Week 4): 0.000 (NE,
OR for rilzabrutinib vs. placebo, UAS7 ≤6 (Week 4): 0.486
RRD (%) for rilzabrutinib vs. placebo, UAS7 = 0 (Week 4): −5.3 %
RRD (%) for rilzabrutinib vs. placebo, UAS7 ≤6 (Week 4): −5.0%
Responder n (%), UAS7 = 0 (Week 4): 0 n (%)
Responder n (%), UAS7 ≤6 (Week 4): 2 (5.4) n (%)
Imputed non-responder n (%), UAS7 = 0 (Week 5): 2 (5.4) n (%)
Imputed non-responder n (%), UAS7 ≤6 (Week 5): 2 (5.4) n (%)
Non-responder n (%), UAS7 = 0 (Week 5): 36 (97.3) n (%)
Non-responder n (%), UAS7 ≤6 (Week 5): 35 (94.6) n (%)
OR for rilzabrutinib vs. placebo, UAS7 = 0 (Week 5): 0.923
OR for rilzabrutinib vs. placebo, UAS7 ≤6 (Week 5): 0.986
RRD (%) for rilzabrutinib vs. placebo, UAS7 = 0 (Week 5): −0.2 %
RRD (%) for rilzabrutinib vs. placebo, UAS7 ≤6 (Week 5): −0.1%
Responder n (%), UAS7 = 0 (Week 5): 1 (2.7) n (%)
Responder n (%), UAS7 ≤6 (Week 5): 2 (5.4) n (%)
Imputed non-responder n (%), UAS7 = 0 (Week 6): 4 (10.8) n (%)
Imputed non-responder n (%), UAS7 ≤6 (Week 6): 4 (10.8) n (%)
Non-responder n (%), UAS7 = 0 (Week 6): 36 (97.3) n (%)
Non-responder n (%), UAS7 ≤6 (Week 6): 34 (91.9) n (%)
OR for rilzabrutinib vs. placebo, UAS7 = 0 (Week 6): 0.923
RRD (%) for rilzabrutinib vs. placebo, UAS7 = 0 (Week 6): −0.2 %
RRD (%) for rilzabrutinib vs. placebo, UAS7 ≤6 (Week 6): −7.8%
Responder n (%), UAS7 = 0 (Week 6): 1 (2.7) n (%)
Responder n (%), UAS7 ≤6 (Week 6): 3 (8.1) n (%)
Imputed non-responder n (%), UAS7 = 0 (Week 7): 6 (16.2) n (%)
Imputed non-responder n (%), UAS7 ≤6 (Week 7): 6 (16.2) n (%)
Non-responder n (%), UAS7 = 0 (Week 7): 36 (97.3) n (%)
Non-responder n (%), UAS7 ≤6 (Week 7): 36 (97.3) n (%)
OR for rilzabrutinib vs. placebo, UAS7 = 0 (Week 7): 1.061
OR for rilzabrutinib vs. placebo, UAS7 ≤6 (Week 7): 0.249
RRD (%) for rilzabrutinib vs. placebo, UAS7 = 0 (Week 7): 0.2 %
RRD (%) for rilzabrutinib vs. placebo, UAS7 ≤6 (Week 7): −8.3%
Responder n (%), UAS7 = 0 (Week 7): 1 (2.7) n (%)
Responder n (%), UAS7 ≤6 (Week 7): 1 (2.7) n (%)
Imputed non-responder n (%), UAS7 = 0 (Week 8): 7 (18.9) n (%)
